Article PMC4398322, “Snake neurotoxin α-bungarotoxin is an antagonist at native GABAA receptors” (Neuropharmacology, 2015)
Values joined by “and” are separate entries in the source; they are usually repeats but may differ in a detail not shown here. Equal values may be shown once. Read-outs that look alike come from different tables or passages of the source.

How the values were obtained:
[1] = biological target: T1, α2β2γ2 GABAARs (Mus musculus, UniProt P22723+P26048+P63137); type: binding, murine
T1 construct: expressed in transfected cells; host or cells: HEK-293
T1 sequence (P26048 29-451): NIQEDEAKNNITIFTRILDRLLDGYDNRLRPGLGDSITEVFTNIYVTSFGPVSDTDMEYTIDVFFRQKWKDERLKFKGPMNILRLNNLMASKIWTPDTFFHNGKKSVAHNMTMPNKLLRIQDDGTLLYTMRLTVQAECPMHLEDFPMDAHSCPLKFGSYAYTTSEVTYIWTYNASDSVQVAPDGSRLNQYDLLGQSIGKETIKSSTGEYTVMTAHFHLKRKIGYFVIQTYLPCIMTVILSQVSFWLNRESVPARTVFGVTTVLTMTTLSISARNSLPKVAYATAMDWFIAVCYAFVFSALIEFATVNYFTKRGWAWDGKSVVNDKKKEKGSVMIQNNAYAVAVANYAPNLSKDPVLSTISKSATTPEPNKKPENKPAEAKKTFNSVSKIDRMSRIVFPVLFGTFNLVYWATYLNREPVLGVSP
T1 sequence (P63137 25-512): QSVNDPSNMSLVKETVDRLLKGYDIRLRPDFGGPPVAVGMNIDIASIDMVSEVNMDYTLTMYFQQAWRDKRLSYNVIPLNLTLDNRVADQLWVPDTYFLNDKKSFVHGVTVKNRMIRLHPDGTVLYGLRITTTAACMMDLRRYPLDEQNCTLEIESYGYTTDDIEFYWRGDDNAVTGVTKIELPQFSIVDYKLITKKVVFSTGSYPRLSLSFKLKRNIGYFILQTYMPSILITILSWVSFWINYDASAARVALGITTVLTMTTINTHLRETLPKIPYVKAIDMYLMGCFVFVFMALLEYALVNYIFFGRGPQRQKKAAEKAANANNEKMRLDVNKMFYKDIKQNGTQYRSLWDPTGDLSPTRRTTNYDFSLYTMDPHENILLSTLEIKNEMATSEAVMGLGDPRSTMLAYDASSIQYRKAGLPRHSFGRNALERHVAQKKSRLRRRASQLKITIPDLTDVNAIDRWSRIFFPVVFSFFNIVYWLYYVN
T1 sequence (P22723 39-474): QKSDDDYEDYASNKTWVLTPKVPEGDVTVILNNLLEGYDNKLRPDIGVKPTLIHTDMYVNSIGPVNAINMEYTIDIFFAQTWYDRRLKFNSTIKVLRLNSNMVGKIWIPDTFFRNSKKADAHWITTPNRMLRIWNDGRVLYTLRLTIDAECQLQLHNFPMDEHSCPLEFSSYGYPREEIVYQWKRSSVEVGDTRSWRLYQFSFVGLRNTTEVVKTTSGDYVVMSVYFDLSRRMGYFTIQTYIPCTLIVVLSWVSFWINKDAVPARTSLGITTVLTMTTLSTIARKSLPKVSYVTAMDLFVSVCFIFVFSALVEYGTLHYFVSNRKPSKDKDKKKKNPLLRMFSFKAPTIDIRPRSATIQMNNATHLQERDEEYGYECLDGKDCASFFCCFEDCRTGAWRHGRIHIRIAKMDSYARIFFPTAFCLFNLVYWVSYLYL
Method: (§1) Murine GABAAR α1-6, β1-3, γ2 and δ cDNAs subcloned into pRK-5 and pEGFP-C1 have been described previously ([Mortensen et al., 2011]).
(§2) Cells were transfected with equimolar ratios of cDNAs encoding for α1–6, β1–3 and δ or γ2 GABAA receptor subunits along with eGFP using a calcium phosphate method ([Mortensen et al., 2011]) 15–45 min after plating.
Live transfected HEK-293 cells were studied 48 h after transfection and washed with Krebs to remove cell culture media and incubated in 400 nM α-Bgtx coupled with Alexa Fluor 555 (α-Bgtx-AF555; Life Technologies) for 10 min at room temperature (RT). Cells were washed and fixed in 4% paraformaldehyde (PFA; Sigma) for 10 min at RT. The cells were imaged immediately post-fixation in saline using a Zeiss LSM 510 Meta confocal microscope and an Achroplan x40 water DIC objective (NA 0.8) as described previously ([Hannan et al., 2012]). This involved choosing the optimal z-section and acquiring images as a mean of 4 scans in 16-bits using a 543 nm Helium–Neon laser and a 560 nm long-pass filter for α-Bgtx-AF555 and a 488 Argon laser with a 505–530 nm band-pass filter for eGFP.
Confocal images were analysed using ImageJ (version 1.410) as described previously ([Hannan et al., 2013]). For each cell the surface membrane was identified by drawing a region-of-interest (ROI) in the eGFP channel and this was transferred to the α-Bgtx-AF555 channel and the mean membrane fluorescence values were determined. Mean background fluorescence was determined from a region devoid of cells. This was subtracted from the mean membrane fluorescence providing a mean corrected fluorescence intensity value. These values, for different combinations of receptors and drugs, were graphically plotted using Origin.
To identify the location of the α-Bgtx binding site on GABAARs, we pre-incubated HEK-293 cells expressing α2β2γ2 with a range of ligands that act at GABAARs and nAChRs, for 5 min at RT followed by co-incubation with α-Bgtx-AF555 for 10 min at RT (Fig. 4A). These ligands were selected to ‘protect by binding occupancy’ known binding site domains on GABAARs and nAChRs.
A, Schematic of the experimental protocol. 48 hrs after transfection, HEK-293 cells expressing eGFP and α2β2γ2 were incubated in drug for 5 min at RT followed by the addition of drug +400 nM α-Bgtx-AF555 for 10 min at RT to label cell surface receptors. The cells were washed to remove the excess α-Bgtx-AF555, fixed and imaged. B, Images of cells expressing α2β2γ2, stained with α-Bgtx-AF555 in the presence of 1 mM d-Tc, 1 mM nicotine, or 1 mM carbachol. C, Mean cell surface fluorescence of α-Bgtx-AF555 bound to surface GABAARs in the presence of d-Tc, nicotine or carbachol. […] Scale bars 5 μm.

[2] = biological target: T2, α5β2γ2 GABAAR (Mus musculus, UniProt P22723+P63137+Q8BHJ7); assay: Whole-cell GABA-activated currents in transfected HEK-293 cells (patch clamp); type: cell-based, murine
T2 construct: expressed in transfected cells; host or cells: HEK-293
T2 sequence (P22723 39-474): as above
T2 sequence (Q8BHJ7 32-463): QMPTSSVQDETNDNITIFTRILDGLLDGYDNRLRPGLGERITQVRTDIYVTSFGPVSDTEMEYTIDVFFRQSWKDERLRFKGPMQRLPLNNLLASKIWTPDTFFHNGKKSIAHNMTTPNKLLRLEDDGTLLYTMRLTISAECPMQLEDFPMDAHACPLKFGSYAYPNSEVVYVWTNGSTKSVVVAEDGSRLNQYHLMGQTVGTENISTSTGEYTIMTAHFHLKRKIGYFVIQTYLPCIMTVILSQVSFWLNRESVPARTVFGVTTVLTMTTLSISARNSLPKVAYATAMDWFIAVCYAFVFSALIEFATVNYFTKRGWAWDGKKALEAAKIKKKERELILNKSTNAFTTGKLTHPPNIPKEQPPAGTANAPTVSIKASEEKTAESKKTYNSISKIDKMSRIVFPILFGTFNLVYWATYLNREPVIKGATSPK
T2 sequence (P63137 25-512): as the sequence (P63137 25-512) above
Method: as §1, §2
(§3) Patch electrodes had resistances of 4–5 MΩ and were filled with an internal solution containing (mM): 120 CsCl 1 MgCl2, 11 EGTA, 30 KOH, 10 HEPES, 1 CaCl2, and 2 K2ATP; pH – 7.2. HEK-293 cells were superfused with a saline solution containing (mM): 140 NaCl, 4.7 KCl, 1.2 MgCl2, 2.52 CaCl2, 11 Glucose, and 5 HEPES; pH 7.4. The saline for recording from primary neurons was supplemented with 2 mM kynurenic acid and pH adjusted to 7.4 to block all spontaneous excitatory post-synaptic currents (EPSCs). Membrane currents were filtered at 5 kHz (−3 dB, 6th pole Bessel, 36 dB/octave). HEK-293 cells were studied 48 h after transfection by voltage clamping cells at a holding potential of −20 to −40 mV with optimised series resistance (Rs, <10 MΩ) and whole-cell membrane capacitance compensation. Neuronal membrane currents were similarly recorded at a holding potential of −60 mV.
(§4) Spontaneous inhibitory postsynaptic currents (IPSCs) were recorded from dentate gyrus granule cells (DGGCs) with the same internal solution as above. Cells were voltage clamped at −60 mV and IPSCs were recorded using 5 kHz filtering with optimal series resistance and whole-cell capacitance compensation.

[3] = tested on: native hippocampal GABAARs; type: cell-based, rat
Method: Dissociated hippocampal neurons were prepared from embryonic day 18 rat pups as described ([Hannan et al., 2012]). Briefly, hippocampi were dissected in ice-cold Hank's Balanced Salt Solution (HBSS) (Ca^2+/Mg^2+ free) before enzymatic dissociation in 0.1% (w/v) trypsin at 37 °C for 10 min followed by serial washes in pre-warmed HBSS to remove trypsin prior to trituration. Cells were mechanically dissociated using fire-polished glass Pasteur pipettes in plating medium composed of minimal essential medium (MEM) supplemented with 5% (v/v) fetal calf serum (FCS), 5% (v/v) horse serum, penicillin-G and streptomycin (200 units/ml and 200 μg/ml), 2 mM L-glutamine and 35 mM glucose. Cells were plated at a density of 10^6 per ml in plating medium on glass cover-slips previously coated with poly-D-lysine. The neurons were grown and maintained at 37 °C in a humidified 95% air/5% CO2 atmosphere.
After plating (30 min), the medium was removed and replaced with maintenance medium composed of Neurobasal-A supplemented with 1% (v/v) B-27, penicillin-G and streptomycin (100 units/ml and 100 μg/ml), 0.5% (v/v) Glutamax and 35 mM glucose.
as §3, §4

[4] = biological target: T3, α2β2γ2 GABAAR (Mus musculus, UniProt P22723+P26048+P63137); assay: Whole-cell GABA-activated currents in transfected HEK-293 cells (patch clamp); type: cell-based, murine
T3 construct: expressed in transfected cells; host or cells: HEK-293
T3 sequence (P63137 25-512): as above
T3 sequence (P26048 29-451): as the sequence (P26048 29-451) above
T3 sequence (P22723 39-474): as the sequence (P22723 39-474) above
Method: as §1, §2, §3, §4

[5] = tested on: dentate gyrus granule cells (DGGCs); assay: Spontaneous IPSCs in dentate gyrus granule cells of acute hippocampal slices; type: cell-based, mouse
Method: (§5) Acute transverse brain slices were prepared from adult (P115–125) male C57BL/6J mice in accordance with the UK Animals (Scientific Procedures) Act 1986.
(§6) The brain was rapidly removed after terminal anaesthesia with isoflurane and immersed in ice-cold slicing solution composed of (mM): 85 NaCl, 2.5 KCl, 1 CaCl2, 4 MgCl2, 1.25 NaH2PO4, 26 NaHCO3, 75 sucrose, and 25 glucose, 2 kynurenic acid, pH – 7.4. The slicing solution was continuously bubbled with 95% […] and 5% CO2. Transverse 250 μm slices containing the ventral hippocampus were cut with a Leica VT1200S vibroslicer. The slicing solution was exchanged at 37 °C for 60 min with a recording solution containing (mM): 125 NaCl, 2.5 KCl, 2 CaCl2, 1 MgCl2, 1.25 NaH2PO4, 26 NaHCO3, 2 kynurenic acid, and 25 glucose, pH 7.4.
as §4
IPSCs were detected and analysed using WinEDR and WinWCP (John Dempster, University of Strathclyde, UK). IPSC frequency was calculated using events detected over 60 s epochs of recording. […] This function provided the Gaussian mean amplitude current (μ) and standard deviation (σ). All the distributions were fitted using this function in Origin (Ver 6). The accuracy of the fits was checked by repeating the iterative non-linear fitting procedure after substituting the best-fit parameters obtained for the control and α-Bgtx datasets with new values.

[6] = tested on: dentate gyrus granule cells (DGGCs); assay: Tonic inhibition (holding current, RMS noise) in dentate gyrus granule cells of acute hippocampal slices; type: cell-based, mouse
Method: as §5, §6
For tonic inhibition, to determine the average holding currents, a 60 s continuous current recording was sampled every 1 s, discarding epochs that coincided with IPSCs. Any effect of drugs on the holding current was defined by subtracting the average holding currents in control and during drug application.
The baseline noise (RMS) was calculated before and during drug treatment. This was estimated from a continuous (30 s) current recording, sampled every 100 ms. The median current was calculated every 5 s and values more than twice the standard deviation from the median (usually due to IPSCs) were eliminated. Baseline GABA-mediated current noise was defined by subtracting RMS values before and after drugs, e.g., α-Bgtx or bicuculline.

[7] = biological target: T4, α4β2δ receptors (Mus musculus, UniProt P22933+P63137+Q9D6F4); assay: Whole-cell GABA-activated and leak currents in transfected HEK-293 cells (patch clamp); type: cell-based, murine
T4 construct: expressed in transfected cells; host or cells: HEK-293
T4 sequence (P22933 17-449): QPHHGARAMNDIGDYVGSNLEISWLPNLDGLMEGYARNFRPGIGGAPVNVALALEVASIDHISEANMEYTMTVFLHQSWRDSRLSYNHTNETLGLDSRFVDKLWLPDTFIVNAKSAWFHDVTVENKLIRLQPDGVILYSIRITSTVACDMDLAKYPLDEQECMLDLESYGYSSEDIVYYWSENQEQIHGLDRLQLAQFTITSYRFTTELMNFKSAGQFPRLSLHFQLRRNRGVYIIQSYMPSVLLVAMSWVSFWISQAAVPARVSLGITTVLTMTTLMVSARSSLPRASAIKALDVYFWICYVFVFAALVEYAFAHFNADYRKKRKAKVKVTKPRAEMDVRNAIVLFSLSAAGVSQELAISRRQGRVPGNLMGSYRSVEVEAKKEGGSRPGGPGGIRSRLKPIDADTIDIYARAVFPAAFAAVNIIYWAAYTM
T4 sequence (P63137 25-512): as the sequence (P63137 25-512) above
T4 sequence (Q9D6F4 36-552): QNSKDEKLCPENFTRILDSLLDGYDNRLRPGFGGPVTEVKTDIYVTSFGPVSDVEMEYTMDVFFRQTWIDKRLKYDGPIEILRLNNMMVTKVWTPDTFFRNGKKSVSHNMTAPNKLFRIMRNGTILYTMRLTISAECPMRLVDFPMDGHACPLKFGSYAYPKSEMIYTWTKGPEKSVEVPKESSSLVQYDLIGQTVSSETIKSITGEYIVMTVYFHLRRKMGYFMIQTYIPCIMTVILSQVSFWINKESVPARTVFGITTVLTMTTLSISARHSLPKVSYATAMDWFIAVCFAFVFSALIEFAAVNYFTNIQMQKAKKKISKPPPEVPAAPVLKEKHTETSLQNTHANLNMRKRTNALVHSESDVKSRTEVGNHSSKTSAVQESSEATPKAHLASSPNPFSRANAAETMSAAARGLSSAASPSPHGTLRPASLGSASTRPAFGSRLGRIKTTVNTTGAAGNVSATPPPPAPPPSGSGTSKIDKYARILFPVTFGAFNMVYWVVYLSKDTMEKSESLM
Method: as §1, §2, §3, §4

[8] = biological target: T5, α2β2 receptors (Mus musculus, UniProt P26048+P63137); assay: Whole-cell GABA-activated currents in transfected HEK-293 cells (patch clamp); type: cell-based, murine
T5 construct: expressed in transfected cells; host or cells: HEK-293
T5 sequence (P26048 29-451): as the sequence (P26048 29-451) above
T5 sequence (P63137 25-512): as the sequence (P63137 25-512) above
Method: as §1, §2
as §3, with “Whole-cell GABA-activated currents were recorded from transfected HEK-293 cells or hippocampal neurons in culture at 12–14 DIV using patch clamp electrophysiology. Patch” for “Patch”

[9] = biological target: T6, α4β2γ2 GABAAR (Mus musculus, UniProt P22723+P63137+Q9D6F4); type: cell-based, murine
T6 construct: expressed in transfected cells; host or cells: HEK-293
T6 sequence (P63137 25-512): as above
T6 sequence (P22723 39-474): as the sequence (P22723 39-474) above
T6 sequence (Q9D6F4 36-552): as the sequence (Q9D6F4 36-552) above
Method: as §1, §2
as §3, with “HEK-293 cells were studied 48 h after transfection by voltage clamping cells at a holding potential of −20 to −40 mV with optimised series resistance (Rs, <10 MΩ) and whole-cell membrane capacitance compensation.” left out
as §4

[10] = biological target: T7, α1β2γ2 GABAAR (Mus musculus, UniProt P22723+P62812+P63137); assay: Whole-cell GABA-activated currents in transfected HEK-293 cells (patch clamp); type: cell-based, murine
T7 construct: expressed in transfected cells; host or cells: HEK-293
T7 sequence (P63137 25-512): as the sequence (P63137 25-512) above
T7 sequence (P22723 39-474): as the sequence (P22723 39-474) above
T7 sequence (P62812 28-455): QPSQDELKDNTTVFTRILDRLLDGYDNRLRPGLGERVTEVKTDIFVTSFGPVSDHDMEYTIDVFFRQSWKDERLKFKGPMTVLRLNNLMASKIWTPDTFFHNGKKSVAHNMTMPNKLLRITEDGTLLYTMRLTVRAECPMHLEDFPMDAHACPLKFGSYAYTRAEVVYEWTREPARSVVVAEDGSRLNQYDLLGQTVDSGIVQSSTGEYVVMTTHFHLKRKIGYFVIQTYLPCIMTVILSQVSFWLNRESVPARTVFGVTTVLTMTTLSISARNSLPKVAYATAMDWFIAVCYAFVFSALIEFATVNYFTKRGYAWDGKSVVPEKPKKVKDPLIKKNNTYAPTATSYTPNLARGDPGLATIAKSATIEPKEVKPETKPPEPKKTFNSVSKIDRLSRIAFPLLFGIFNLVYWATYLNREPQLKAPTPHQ
Method: as §1, §2, §3, §4

[11] = tested on: GABAARs expressed in HEK293 cells; type: cell-based, murine
[12] = 1 mM ligand, 5 min pre-incubation then + 400 nM α-Bgtx-AF555 10 min, n = 7, Fig. 4B–C

NCCCC(=O)O [GABA, γ-aminobutyric acid]
α-Bgtx-AF555 binding in presence of ligand [1]: 34.9 ± 7.1 % of control | EC50 ([2]; n = 5): 2440 nM

CCN1C[C@]2(COC(=O)c3ccccc3N3C(=O)C[C@H](C)C3=O)CC[C@H](OC)[C@@]34[C@@H]5C[C@H]6[C@H](OC)[C@@H]5[C@](O)(C[C@@H]6OC)[C@@](O)([C@@H](OC)[C@H]23)[C@@H]14 [MLA, methyllaconitine]
effect on currents activated by sub-maximal GABA [3]: < 1 % of control | inhibition of GABA-activated currents ([3]; 10 μM GABA, 1 nM MLA, 1 min pre-incubation then co-applied, n = 6, P > 0.05): 0.8 ± 1.7 % inhibition | effect on amplitude of GABA-activated currents ([4]; 1 nM MLA pre-applied 1 min before co-application with GABA): did not affect the amplitude | frequency of IPSCs ([5]; 1 nM MLA, n = 5, control 4.12 ± 0.9 Hz, P > 0.05): 3.75 ± 1.2 Hz | median IPSC amplitude ([5]; 1 nM MLA, n = 6098 events, control −30.82 pA, P > 0.05): −30.21 pA | DGGC holding current ([6]; 1 nM MLA): slightly reduced

Oc1noc2c1CCNC2 [THIP]
response compared with maximal GABA (1 mM) ([7]; 300 μM THIP): superagonist ability

[Zn+2] [Zn^2+]
inhibition of submaximal GABA currents by Zn^2+ [4]: 37.4 ± 8.9% | inhibition of submaximal GABA currents by Zn^2+ [8]: 90.8 ± 4.44%

CN1CCc2cc3c(cc2[C@H]1[C@@H]1OC(=O)c2c1ccc1c2OCO1)OCO3 [bicuculline]
RMS noise ([6]; 50 μM bicuculline applied after α-Bgtx, n = 6, P < 0.05): 2.74 ± 0.34 pA | average tonic current revealed (change in holding current) ([6]; 50 μM bicuculline, n = 7): 9.31 ± 2.52 pA

C[N+](C)(C)CCOC(N)=O [carbachol]
α-Bgtx-AF555 binding in presence of ligand [1, 12]: 100.5 ± 11.3 % of control

COc1cc2c3cc1Oc1cc(ccc1O)C[C@@H]1c4c(cc(OC)c(O)c4Oc4ccc(cc4)C[C@@H]3N(C)CC2)CC[N+]1(C)C [d-Tc, d-tubocurarine]
inhibition of whole-cell GABA-activated currents [3]: 92 ± 4 % inhibition | α-Bgtx-AF555 binding in presence of ligand ([1]; 1 mM d-Tc, n = 6, Fig. 4D–E): 7.1 ± 1.9 % of control | α-Bgtx-AF555 binding in presence of ligand [1, 12]: 1.8 ± 1.3 % of control

CN1CCC[C@H]1c1cccnc1 [nicotine]
α-Bgtx-AF555 binding in presence of ligand [1]: 90.5 ± 11.4 % of control

CCCC(C)C1(CC)C(=O)NC(=O)NC1=O (centres unmarked) [pentobarbital]
modulation of 1 μM GABA currents ([3]; 20 μM pentobarbital): potentiated

picrotoxin
α-Bgtx-AF555 binding in presence of ligand [1]: 106.7 ± 14.9 % of control

α-bungarotoxin [α-Bgtx]
inhibition of GABA currents [3]: 33 ± 9% | reversibility of inhibition [3]: reversible | inhibition of submaximal GABA currents [9]: 41.3 ± 4.4% | inhibition of submaximal GABA currents [10]: 23.8 ± 3% | inhibition of submaximal GABA currents [2]: 15.3 ± 5.9% | potentiation of submaximal GABA responses [7]: 46 ± 5% and 40 ± 6% | reduction in leak current in HEK-293 cells expressing α4β2δ relative to reduction of the leak in DGGCs [7]: over 40 fold | reduction of leak current [7]: 56 ± 3.7 pA and 75 ± 13 pA | reduction of saturating GABA currents [11]: 13.0 ± 5.9% | IPSC amplitude distribution, Gaussian peak 1 mean [5]: −13.66 pA | IPSC amplitude distribution, Gaussian peak 2 mean [5]: −19.01 pA | frequency of IPSCs [5]: 2.17 ± 0.34 Hz | median IPSC amplitude [5]: −23.19 pA | RMS noise [6]: 3.39 ± 0.59 pA | change in DGGC holding current [6]: 1.27 ± 1.21 pA
